According to US20070049593A1 (priority 2004, published 2007):
Counter-ions that a name gives are not always drawn.

Each compound was assayed against T1, HCV polymerase (Hepatitis C virus genotype 1b, UniProt P26663) (assay: biochemical). Conditions: not given.
T1 construct: a region encoding NS5B (J Virol 1991 March, 65(3), 1105-13, 544 amino acids after deletion of 47 amino acids on the C-terminal); 6xHis (C); made in house; host or cells: Escherichia coli
T1 sequence (P26663 2420-2963): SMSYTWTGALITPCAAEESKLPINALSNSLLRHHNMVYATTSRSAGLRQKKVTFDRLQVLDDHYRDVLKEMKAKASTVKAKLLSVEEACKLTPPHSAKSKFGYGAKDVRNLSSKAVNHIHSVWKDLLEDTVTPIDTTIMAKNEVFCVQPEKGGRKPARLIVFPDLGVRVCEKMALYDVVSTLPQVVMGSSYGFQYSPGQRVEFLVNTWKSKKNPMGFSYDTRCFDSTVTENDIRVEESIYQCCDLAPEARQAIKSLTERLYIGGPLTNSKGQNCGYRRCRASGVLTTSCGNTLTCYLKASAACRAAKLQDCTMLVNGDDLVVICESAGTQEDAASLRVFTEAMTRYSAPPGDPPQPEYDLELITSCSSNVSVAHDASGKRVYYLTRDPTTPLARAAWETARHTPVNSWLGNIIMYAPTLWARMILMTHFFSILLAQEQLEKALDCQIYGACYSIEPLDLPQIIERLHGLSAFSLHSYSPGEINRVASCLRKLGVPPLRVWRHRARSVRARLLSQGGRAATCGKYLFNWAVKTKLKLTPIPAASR
Design: species or system HCV BK strain
Summary of the method: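 Recombinant HCV BK-strain NS5B (C-terminal 47 aa deleted, His6-tagged, E. coli), 0.5 μg/ml, run with 5 μg/ml in vitro-transcribed RNA template (polyU/3′X), ATP/GTP/CTP 50 μM, UTP 2 μM plus [3H]UTP, pH 7.5, 25° C, 90 min. TCA-precipitated RNA counted by scintillation; IC50 from activity with vs without compound.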
CCN(CCN1CCCCC1)c1cccc2c1OCCn1c-2c(C2CCCCC2)c2ccc(C(=O)O)cc21 [Example 2-480, 12-cyclohexyl-4-{N-ethyl-N-[2-(piperidin-1-yl)ethyl]amino}-6,7-dihydro-5-oxa-7a-azadibenzo[a,e]azulene-9-carboxylic acid dihydrochloride] gave an IC50 of less than 100 nM.
With O=C(N[C@H](Cc1ccc(O)cc1)C(=O)O)c1ccc2c(C3CCCCC3)c3n(c2c1)CCOc1ccccc1-3 [Example 2-246, (R)-2-[(12-cyclohexyl-6,7-dihydro-5-oxa-7a-azadibenzo[a,e]azulene-9-carbonyl)amino]-3-(4-hydroxyphenyl)propionic acid] the IC50 was less than 100 nM.
CCC1CN(CCN2CCn3c(c(C4CCCCC4)c4ccc(C(=O)O)cc43)-c3ccc(Cl)cc32)CCO1 (stereo not drawn) [Example 1-290, 3-chloro-13-cyclohexyl-5-[2-(2-ethylmorpholin-4-yl)ethyl]-6,7-dihydro-5H-benzo[5,6][1,4]diazepino[7,1-a]indole-10-carboxylic acid dihydrochloride] was tested, and the IC50 was less than 100 nM.
In the case of O=C(O)c1ccc2c(C3CCCCC3)c3n(c2c1)CCN(CCN1CCCCC1)c1cc(F)ccc1-3 [Example 1-116, 13-cyclohexyl-3-fluoro-5-[2-(piperidin-1-yl)ethyl]-6,7-dihydro-5H-benzo[5,6][1,4]diazepino[7,1-a]indole-10-carboxylic acid dihydrochloride], the IC50 is reported as less than 100 nM.
For O=C(O)c1ccc2c(C3CCCCC3)c3n(c2c1)CCNc1cc(OCc2cc(N4CCCC4=O)ccc2N2CCOCC2)ccc1-3 [Example 1-100, 13-cyclohexyl-3-[2-(morpholin-4-yl)-5-(2-oxopyrrolidin-1-yl)benzyloxy]-6,7-dihydro-5H-benzo[5,6][1,4]diazepino[7,1-a]indole-10-carboxylic acid dihydrochloride], the IC50 was less than 100 nM.
With COC1CCN(CCN2CCn3c(c(C4CCCCC4)c4ccc(C(=O)O)cc43)-c3ccccc32)CC1 [Example 1-39, 13-cyclohexyl-5-[2-(4-methoxypiperidin-1-yl)ethyl]-6,7-dihydro-5H-benzo[5,6][1,4]diazepino[7,1-a]indole-10-carboxylic acid dihydrochloride] the IC50 was less than 100 nM.
O=C(O)c1ccc2c(C3CCCCC3)c3n(c2c1)CCOc1cc(Oc2cccc(Cl)c2)ccc1-3 [Example 2-26, 3-(3-chlorophenoxy)-12-cyclohexyl-6,7-dihydro-5-oxa-7a-azadibenzo[a,e]azulene-9-carboxylic acid] showed an IC50 of less than 100 nM.
O=C(O)c1ccc2c(C3CCCCC3)c3n(c2c1)CCOc1cc(Oc2ccccc2Cl)ccc1-3 [Example 2-30, 3-(2-chlorophenoxy)-12-cyclohexyl-6,7-dihydro-5-oxa-7a-azadibenzo[a,e]azulene-9-carboxylic acid] gave an IC50 of less than 100 nM.
O=C(O)c1ccc2c(C3CCCCC3)c3n(c2c1)CCN(CC(=O)N1CCCCCCCC1)c1ccccc1-3 [Example 1-132, 5-[2-(azonan-1-yl)-2-oxoethyl]-13-cyclohexyl-6,7-dihydro-5H-benzo[5,6][1,4]diazepino[7,1-a]indole-10-carboxylic acid] showed an IC50 of less than 100 nM.
Work on COc1ccc2c(c1)OCCn1c-2c(C2CCCCC2)c2ccc(C(=O)N[C@@H](Cc3cccc(C(F)(F)F)c3)C(=O)O)cc21 [Example 2-354, (S)-2-[(12-cyclohexyl-3-methoxy-6,7-dihydro-5-oxa-7a-azadibenzo[a,e]azulene-9-carbonyl)amino]-3-(3-trifluoromethylphenyl)propionic acid] yielded an IC50 of less than 100 nM.
In the case of O=C(O)c1ccc2c(C3CCCCC3)c3n(c2c1)CCN(CC[C@@H]1CCCN(C2CCCC2)C1)c1cc(Cl)ccc1-3 [Example 1-404, 3-chloro-13-cyclohexyl-5-[2-((S)-1-cyclopentylpiperidin-3-yl)ethyl]-6,7-dihydro-5H-benzo[5,6][1,4]diazepino[7,1-a]indole-10-carboxylic acid dihydrochloride], the IC50 is reported as less than 100 nM.
In the case of O=C(NCCOCCO)c1ccc2c(C3CCCCC3)c3n(c2c1)CCOc1ccccc1-3 [Example 2-164, N-[2-(2-hydroxyethoxy)ethyl]-12-cyclohexyl-6,7-dihydro-5-oxa-7a-azadibenzo[a,e]azulene-9-carboxamide], the IC50 is reported as 100 to 1000 nM.
Cc1ccc2c(c1)N(C1CCNCC1)CCn1c-2c(C2CCCCC2)c2ccc(C(=O)O)cc21 [Example 1-562, 13-cyclohexyl-3-methyl-5-(piperidin-4-yl)-6,7-dihydro-5H-benzo[5,6][1,4]diazepino[7,1-a]indole-10-carboxylic acid dihydrochloride] gave an IC50 of less than 100 nM.
For CC(=O)Nc1ccc(N2CCOCC2)c(COc2ccc3c(c2)OCCn2c-3c(C3CCCCC3)c3ccc(C(=O)O)cc32)c1 [Example 2-15, 3-[5-acetylamino-2-(morpholin-4-yl)benzyloxy]-12-cyclohexyl-6,7-dihydro-5-oxa-7a-azadibenzo[a,e]azulene-9-carboxylic acid monohydrochloride], the IC50 was less than 100 nM.
In the case of O=C(N[C@@H](Cc1ccc(O)cc1)C(=O)O)c1ccc2c(C3CCCCC3)c3n(c2c1)CCOc1ccccc1-3 [Example 2-180, (S)-2-[(12-cyclohexyl-6,7-dihydro-5-oxa-7a-azadibenzo[a,e]azulene-9-carbonyl)amino]-3-(4-hydroxyphenyl)propionic acid], the IC50 is reported as less than 100 nM.
O=C(O)c1ccc2c(C3CCCCC3)c3n(c2c1)CCN(CCN1CCCCC1)c1ccccc1-3 [Example 1-32, 13-cyclohexyl-5-[2-(piperidin-1-yl)ethyl]-6,7-dihydro-5H-benzo[5,6][1,4]diazepino[7,1-a]indole-10-carboxylic acid dihydrochloride] showed an IC50 of less than 100 nM.
Compound CC(C)(CN/C=C/C(=O)O)NC(=O)c1ccc2c(C3CCCCC3)c3n(c2c1)CCOc1ccccc1-3 [Example 2-254, (E)-3-{2-[(12-cyclohexyl-6,7-dihydro-5-oxa-7a-azadibenzo[a,e]azulene-9-carbonyl)amino]-2-methylpropylamino}acrylic acid] has an IC50 of 100 to 1000 nM.
In the case of CCN1CCC(=CCN2CCn3c(c(C4CCCCC4)c4ccc(C(=O)O)cc43)-c3ccccc32)CC1 [Example 1-123, 13-cyclohexyl-5-[2-(1-ethylpiperidin-4-ylidene)ethyl]-6,7-dihydro-5H-benzo[5,6][1,4]diazepino[7,1-a]indole-10-carboxylic acid dihydrochloride], the IC50 is reported as less than 100 nM.
CN1CCCC(Oc2cccc3c2OCCn2c-3c(C3CCCCC3)c3ccc(C(=O)O)cc32)C1 (stereo not drawn) [Example 2-469, 12-cyclohexyl-4-(1-methylpiperidin-3-yloxy)-6,7-dihydro-5-oxa-7a-azadibenzo[a,e]azulene-9-carboxylic acid monohydrochloride] gave an IC50 of less than 100 nM.
O=C(O)c1ccc2c(C3CCCCC3)c3n(c2c1)CCN(CCC1CCCN(C2CCCCC2)C1)c1cc(Cl)ccc1-3 (stereo not drawn) [Example 1-379, 3-chloro-13-cyclohexyl-5-[2-(1-cyclohexylpiperidin-3-yl)ethyl]-6,7-dihydro-5H-benzo[5,6][1,4]diazepino[7,1-a]indole-10-carboxylic acid dihydrochloride] showed an IC50 of less than 100 nM.

Same assay, conditions: read-out: HCV polymerase inhibitory activity IC50; 25° C., 90 min; [5,6-3H]UTP incorporation into RNA
For COC[C@@H]1CCCN(CCN2CCn3c(c(C4CCCCC4)c4ccc(C(=O)O)cc43)-c3ccc(C)cc32)C1 [Example 1-416, 13-cyclohexyl-5-[2-((R)-3-methoxymethylpiperidin-1-yl)ethyl]-3-methyl-6,7-dihydro-5H-benzo[5,6][1,4]diazepino[7,1-a]indole-10-carboxylic acid dihydrochloride], the IC50 was less than 100 nM.
